Laboratory results taken from paper PMC4894652 (Neuron, 2016).

Molecular target: T1, DmSLC22A (CG7442) (Drosophila melanogaster, UniProt Q7JRD5)
T1 sequence (Q7JRD5 1-568): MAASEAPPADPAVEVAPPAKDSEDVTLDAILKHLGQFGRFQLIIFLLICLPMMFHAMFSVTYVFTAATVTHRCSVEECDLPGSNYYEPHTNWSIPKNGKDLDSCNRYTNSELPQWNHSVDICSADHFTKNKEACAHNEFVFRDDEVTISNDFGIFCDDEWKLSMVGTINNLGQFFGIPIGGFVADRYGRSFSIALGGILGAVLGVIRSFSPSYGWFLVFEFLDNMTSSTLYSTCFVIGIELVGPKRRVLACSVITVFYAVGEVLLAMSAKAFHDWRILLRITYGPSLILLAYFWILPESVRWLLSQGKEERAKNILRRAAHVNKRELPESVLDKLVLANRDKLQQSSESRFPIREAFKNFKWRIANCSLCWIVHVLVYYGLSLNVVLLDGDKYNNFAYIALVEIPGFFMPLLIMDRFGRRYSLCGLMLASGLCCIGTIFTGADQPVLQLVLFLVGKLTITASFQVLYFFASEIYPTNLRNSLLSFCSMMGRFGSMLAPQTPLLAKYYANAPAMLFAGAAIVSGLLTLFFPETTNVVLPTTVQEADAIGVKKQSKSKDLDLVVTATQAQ
Format: cell-based
Details: labelled compound; doxycycline-induced vs un-induced cells

| SMILES | apparent Km |
| --- | --- |
| C[n+]1ccc(-c2ccccc2)cc1 [MPP] | Table S2 lists the apparent Km and Vmax values for each substrate |
| C[N+](C)(C)CCO [choline] | choline and acetylcholine are transported with low μM Km values |
| NCCc1c[nH]c2ccc(O)cc12 [serotonin] | Table S2 lists the apparent Km and Vmax values for each substrate |
| NCCc1c[nH]cn1 [histamine] | Table S2 lists the apparent Km and Vmax values for each substrate |
| C[N+](C)(C)CC(=O)[O-] [betaine] | Table S2 lists the apparent Km and Vmax values for each substrate |
| CC(=O)OCC[N+](C)(C)C [acetylcholine] | choline and acetylcholine are transported with low μM Km values |
| CC[N+](CC)(CC)CC [TEA] | Table S2 lists the apparent Km and Vmax values for each substrate |
